The values below come from patent publication US20190195880A1, “METHODS AND KITS FOR PREDICTING THE SENSITIVITY OF A SUBJECT SUFFERING OF RENAL CANCER TO CANCER TREATMENT” (CENTRE NATIONAL DE LA RECHERCHE SCIENTIFIQUE (CNRS), priority 2016, published 2019).

Test [1] deals with metastatic ccRCC. Briefly: TORAVA trial (retrospective validation cohort): survival versus plasmatic CXCL5/CXCL7. To be noted: patients with CXCL7 plasma levels below 250 ng/ml. The test is classed as in vivo, human. The method, then:
(§1) All patients gave written informed consent. The SUVEGIL trial (NCT00943839) was a multicenter prospective single-arm study. […] Patient characteristics and results have been previously described (Negrier et al., 2011).
(§2) The CXCL5 and CXCL7 cut-off points (respectively 0.1 and 250 ng/ml) for PFS and OS were determined using smoothing spline curves analysis (R software, version 3.2.2). […] The predictive cut-off points determined in the SUVEGIL cohort were used for the TORAVA cohort.

Test [2] has as its system metastatic ccRCC. The test can be described thus: Combination of SUVEGIL and TORAVA trials (sunitinib): survival versus plasmatic CXCL7. Type of test: in vivo, human. To be noted: both cohorts combined. The method, then:
as §1, §2

The subject of test [3] is metastatic ccRCC.
Protocol: Eligible patients were at least 18 years of age and had metastatic ccRCC histologically confirmed, with the presence of measurable disease according to Response Evaluation Criteria in Solid Tumors (RECIST) v1.1.
The primary end point of the study was to evaluate the correlation between plasmatic levels of CXCL5 and CXCL7 and the overall response rate (ORR). The response was evaluated by investigators' assessment.
The secondary end points were to evaluate the correlation between plasmatic levels of CXCL5 and/or CXCL7 and overall survival (OS) and progression-free survival (PFS), censored at last follow-up for those still alive or who have not progressed.
Blood samples were centrifuged and the plasmas were collected and conserved at −80° C. Plasmatic levels of CXCL5 and CXCL7 were determined by ELISA using R&D (reference DY254) and Peprotech kits (reference 900-K40) respectively. Pure plasma or a 1/5 dilution was used for CXCL5 detection and a 1/100 dilution was used to detect CXCL7.
Spearman's correlation was performed between best response rate and quantitative level of chemokine. The CXCL5 and CXCL7 cut-off points (respectively 0.1 and 250 ng/ml) for PFS and OS were determined using smoothing spline curves analysis (R software, version 3.2.2). Kaplan Meier method was used to produce survival curves and analyses of censored data were performed using Cox models. The predictive cut-off points determined in the SUVEGIL cohort were used for the TORAVA cohort.
[4] abbreviates: CXCL7 plasma levels below 250 ng/ml.

Each structure is given as a SMILES string. Where two headings read alike, the source gives them in different places.

As to `CCN(CC)CCNC(=O)c1c(C)[nH]c(/C=C2\C(=O)Nc3ccc(F)cc32)c1C` [sunitinib], the PFS in the test on metastatic ccRCC [1] came to 8.6 months; in the test on metastatic ccRCC [3] (patients with CXCL7 plasma levels below 250 ng/ml at diagnosis), 15.1 months. For the same compound, the OS in the test on metastatic ccRCC [2] (CXCL7 plasma levels above 250 ng/ml, p=0.00025) came to 34.4 months; with metastatic ccRCC [2] (setting [4]), 20.7 months. For the same compound, the “median PFS” value came out at 8.3 months in the test on metastatic ccRCC [2] (setting [4]); 20.1 months in the test with metastatic ccRCC [3] (SUVEGIL prospective cohort, all patients); 14.9 months in the test with metastatic ccRCC [3] (patients with CXCL5 plasma levels below 0.1 ng/ml). Moreover, the “median OS” value in the test on metastatic ccRCC [3] (patients with CXCL7 plasma levels below 250 ng/ml) was 20.5 months; in the test on metastatic ccRCC [3] (patients with CXCL7 plasmatic levels above 250 ng/ml, p=0.001) it was 34.4 months.
